“Also recorded” adds a separate entry of the source.
Key:
2F–2B ECs = format: cell-based, murine
Procedure: The murine 2F–2B endothelial cell line (ATCC) was transiently transfected as described elsewhere (Soares et al., Nature Med. 4:1073, 1998; Brouard et al, J. Exp. Med. 192:1015, 2000). All experiments were conducted 24–48 h after transfection. é-galactosidase-transfected cells were detected as described elsewhere (Soares et al., Nature Med. 4:1073, 1998; Brouard et al., J. Exp. Med. 192:1015, 2000). Percentage of viable cells was assessed by evaluating the number of é-galactosidase-expressing cells that retained normal morphology as described elsewhere (Soares et al., Nature Med. 4:1073, 1998; Brouard et al., J. Exp. Med. 192:1015, 2000). The number of random fields counted was determined to have a minimum of 200 viable transfected cells per control well. The percentage of viable cells was normalized for each DNA preparation to the number of transfected cells counted in the absence of the apoptosis-inducing agent (100% viability). All experiments were performed at least three times in duplicate. Actinomycin D (Act. D; Sigma) was dissolved in PBS and added to the culture medium (10 îg/ml) 24 h after transfection. SnPPIX (Porphyrin Products) was dissolved (10 îM) in 100 mM NaOH and conserved at −20° C. until used. SNPPIX was added to the culture medium (50 îM) 6 h after transfection. Human recombinant TNF-α (R&D Systems, Minneapolis, Minn.) was dissolved in PBS, 1% BSA, and added to the culture medium (10–100 ng/ml) 24 h after transfection.
Cells were exposed to compressed air or varying concentration of CO (250 and 10,000 ppm), as described elsewhere (Otterbein et al., Nature Med. 6:422, 2000; and Brouard et al., J. Exp. Med. 192:1015, 2000).
BAECs and 2F–2B ECs were transiently transfected. All experiments were carried out 24–48 h after transfection. The percentage of viable cells was assessed by evaluating the number of β-galactosidase-expressing cells that retained normal morphology. The number of random fields counted was determined to have a minimum of 200 viable transfected cells per control well. The percentage of viable cells was normalized for each DNA preparation to the number of transfected cells counted in the absence of the apoptosis-inducing agent (100% viability). All experiments were performed at least three times in duplicate.
Actinomycin D (Act.D; Sigma-Aldrich) was dissolved in PBS and added to the culture medium 24 h after transfection. The Act.D concentration used corresponded to the optimal concentration necessary to sensitize ECs to TNF-α mediated apoptosis, e.g., 10 μg/ml for 2F–2B ECs and 0.1 μg/ml for BAECs. When indicated, EC apoptosis was induced by etoposide (200 μM, 8 h; Calbiochem-Novabiochem) or by serum deprivation (0.1% FCS for 24 h). The iron chelator deferoxamine mesylate (DFO; Sigma-Aldrich) was dissolved in water and added to culture medium (1–100 μM) 1 h before the induction of apoptosis. Hemoglobin (Hb; Sigma-Aldrich) was dissolved (1 mM) in PBS, 10 mM Na2S2O4, dialyzed against PBS (2 h, 4° C., 1:800 dilution), and added to the culture medium (1–100 μM) 6 h after transfection. The guanylcyclase inhibitor 1H(1,2,4)oxadiazolo(4,3)quinoxalin-1 (ODQ; Calbiochem-Novabiochem) was dissolved in DMSO (Sigma-Aldrich) and added to the culture medium (10–100 μM) 6 h after transfection. Iron protoporphyrin ([FePP]/heme), cobalt protoporphyrin (CoPPIX), and tin protoporphyrin (SnPPIX; all from Porphyrin Products, Inc.) were dissolved (10 mM) in 100 mM NaOH and held at −20° C. until use. Metalloporphyrins were added to the culture medium (50 μM) 6 h after transfection. The cGMP analogue 8-bromo-cGMP sodium salt (8-Br-cGMP; Sigma-Aldrich) was dissolved in water and added to the culture medium (10–100 µM) 30 min before the induction of apoptosis. Human recombinant TNF- (R&D Systems) was dissolved in PBS and 1% BSA, and added to the culture medium (10–100 ng/ml) 24 h after transfection.
Cells were exposed to compressed air from a compressed air tank or varying concentrations of CO (250 and 10,000 ppm).

VASP = VASP phosphorylation by Western blot in ECs; format: cell-based
Procedure: Cell extracts were prepared, electrophoresed under denaturing conditions (10–12.5% polyacrylamide gels), and transferred into polyvinyldifluoridine membranes (Immobilon P™; Millipore). HO-1 was detected using a rabbit anti-human HO-1 polyclonal antibody (StressGen Biotechnologies). Vasodilatator-stimulated phosphoprotein (VASP) was detected using a rabbit anti-human VASP polyclonal antibody (Calbiochem-Novabiochem). […] Primary antibodies were detected using horseradish peroxidase-conjugated donkey anti-rabbit or goat anti-mouse IgG secondary antibodies (Pierce Chemical Co.). Peroxidase was visualized using the enhanced chemiluminescence assay (Amersham Pharmacia Biotech) according to the manufacturer's instructions, and stored in the form of photoradiographs (Biomax™ MS; Eastman Kodak Co.). […] The amount of phosphorylated ERK, JNK, and p38 MAPK was quantified using ImageQuant® software (Molecular Dynamics). […] Phosphorylated ERK, JNK, and p38 MAPK were normalized to the total amount of total ERK, JNK, and p38 MAPK detected in the same membrane.
Most biological functions attributed to CO have been linked to its ability to bind guanylcyclase and increase the generation of cGMP. […] (B) Activation of guanylcyclase was monitored in BAECs by analyzing the phosphorylation of VASP. […] (D) Phosphorylation of VASP was analyzed by Western blot as described above in B. N.T., nontreated. […]

With `Nc1nc2c(nc(Br)n2[C@@H]2O[C@@H]3COP(=O)(O)O[C@H]3[C@H]2O)c(=O)[nH]1` [8-Br-cGMP, 8-bromoguanosine-3′-5′-cyclic-monophosphate] the “effect on EC apoptosis” value (2F–2B ECs; 8-Br-cGMP) was “failed to suppress EC apoptosis” and the VASP phosphorylation (VASP) was “induce VASP phosphorylation”.
For `[C-]#[O+]` [CO, carbon monoxide], the “effect on EC apoptosis under inhibition of HO activity by SnPPIX” value (2F–2B ECs; CO 250 ppm) was “did not suppress EC apoptosis significantly” and the “effect on TNF-α mediated apoptosis of control ECs (pcDNA3)” value (2F–2B ECs; exogenous CO 10,000 ppm) was “TNF-α mediated apoptosis was suppressed”.
With `C=CC1=C(C)c2cc3[n-]c(cc4[n-]c(cc5nc(cc1n2)C(C)=C5C=C)c(C)c4CCC(=O)O)c(CCC(=O)O)c3C.[Fe+2]` [FePPIX, iron protoporphyrin] the “concentrations at which heme becomes cytotoxic” value (2F–2B ECs; 2F–2B ECs) was “higher than 10 μM”, the “heme concentrations at which the protective effect from TNF-α plus Act.D-mediated apoptosis was observed” value (2F–2B ECs; 2F–2B ECs) was 5 to 7 µM and the “effect on EC apoptosis when CO was scavenged by Hb” value (2F–2B ECs; FePP 6.25 μM, Hb 50 μM) was “no longer able to suppress EC apoptosis”.
`O=c1onc2cnc3ccccc3n12` [ODQ, 1H[1,2,4]oxadiazolo[4,3-α]quinoxalin-1] was tested, and the “effect on the antiapoptotic effects of HO-1” value (2F–2B ECs; ODQ 10–100 μM) was “did not suppress the antiapoptotic effects of HO-1” and the VASP phosphorylation (VASP) was “prevent constitutive VASP phosphorylation”.
For `C=Cc1c2[n-]c(c1C)/C=c1\[n-]/c(c(C)c1C=C)=C\c1[n-]c(c(CCC(=O)O)c1C)C=c1[n-]/c(c(C)c1CCC(=O)O)=C\2.[Sn+4]` [SnPPIX, tin protoporphyrin IX], the “effect of protoporphyrin on the antiapoptotic effect of HO-1” value (2F–2B ECs; HO-1 transfected ECs, protoporphyrin 50 μM) was “blocked the antiapoptotic effect of HO-1; also recorded: HO-1 was no longer able to prevent EC apoptosis”.

— patent US7238469B2, “Carbon monoxide improves outcomes in tissue and organ transplants and suppresses apoptosis” (priority 2001, dated 2007)
